Assay results taken from patent US20080269251A1, “Substituted Pyrazinone Derivatives as Alpha2C-Adrenoreceptor Antagonists” (priority 2005, published 2008).

Target: T1, human adrenergic-α2A receptor (Homo sapiens, UniProt P08913)
T1 construct: expressed in transfected cells; host or cells: CHO cells, stably transfected; membrane preparation
T1 sequence (P08913 1-465): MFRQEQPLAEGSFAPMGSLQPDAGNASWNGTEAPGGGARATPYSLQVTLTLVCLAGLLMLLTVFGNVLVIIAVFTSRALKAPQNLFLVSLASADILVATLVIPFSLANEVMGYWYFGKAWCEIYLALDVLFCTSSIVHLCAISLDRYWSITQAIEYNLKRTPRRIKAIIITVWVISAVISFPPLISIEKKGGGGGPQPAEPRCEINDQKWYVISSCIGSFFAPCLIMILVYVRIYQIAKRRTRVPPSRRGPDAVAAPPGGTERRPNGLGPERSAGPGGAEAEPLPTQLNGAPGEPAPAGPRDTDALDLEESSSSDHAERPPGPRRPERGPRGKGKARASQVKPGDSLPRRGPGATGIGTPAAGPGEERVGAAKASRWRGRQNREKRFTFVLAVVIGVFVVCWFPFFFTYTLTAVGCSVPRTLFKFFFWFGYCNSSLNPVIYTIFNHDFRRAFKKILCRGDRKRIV
Test: Radioligand binding experiment for hα2A-adrenergic receptor ([3H]raulwolscine)
Details: [3H]raulwolscine 1 nM, 60 minutes at 25° C.; read-out: h-α2A pIC50 (converted)
How it was run: (§1)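 CHO membranes expressing human α2A or α2C receptors were incubated with 1 nM [^3H]raulwolscine for 60 min at 25° C in glycylglycine 25 mM, pH 8.0, then filtered. Nonspecific binding was defined with 1 μM oxymetazoline for α2A and 1 μM spiroxatrine for α2C. pIC50 came from sigmoidal competition curves.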

Compound | IC50
O=c1[nH]ccnc1NC1CCN(Cc2ccc3ncccc3c2)CC1 [9-13] | 3160 nM
CN(Cc1ccccc1)C(=O)Cn1ccnc(NC2CCN(Cc3ccc4ccccc4c3)CC2)c1=O [1-69] | 200 nM
CCOC(=O)N1CCC(NC(=O)NCc2ccc(-n3ccnc(NC4CCN(Cc5ccc6ccccc6c5)CC4)c3=O)cc2)CC1 [1-55] | 631 nM
O=c1c(NC2CCN(Cc3ccc4ccccc4c3)CC2)nccn1-c1cnc2ccccc2c1 [6-09] | 200 nM
O=c1c(NC2CCN(Cc3ccc4ccccc4c3)CC2)nccn1CCCC(c1ccc(F)cc1)c1ccc(F)cc1 [5-07] | 316 nM
Cc1ccc(CN(Cc2ccc(-n3ccnc(NC4CCN(Cc5ccc6ccccc6c5)CC4)c3=O)cc2)Cc2ccc(C)o2)o1 [1-85] | 794 nM
O=c1c(N2CCN(Cc3ccc4ccccc4n3)CC2)nccn1Cc1ccccc1 [9-29] | 631 nM
O=c1c(NC2CCN(Cc3ccc4ncccc4c3)CC2)nccn1CCCOCc1ccccc1 [9-06] | 1260 nM
O=c1c(NC2CCN(Cc3ccc4ccccc4c3)CC2)nccn1CCCO [3-02] | 631 nM
CN(C(=O)Cn1ccnc(NC2CCN(Cc3ccc4ccccc4c3)CC2)c1=O)c1ccccc1 [1-63] | 158 nM
CN(C(=O)Cn1ccnc(NC2CCN(Cc3ccc4ccccc4c3)CC2)c1=O)C1CCCCC1 [1-16] | 316 nM
Cc1ccc(CNC(=O)NCc2ccc(-n3ccnc(NC4CCN(Cc5ccc6ccccc6c5)CC4)c3=O)cc2)cc1F [1-49] | 501 nM
N#CCCn1ccnc(NC2CCN(Cc3ccc4ccccc4c3)CC2)c1=O [5-05] | 398 nM
NCc1ccc(-n2ccnc(NC3CCN(Cc4ccc5ccccc5c4)CC3)c2=O)cc1 [1-01] | 200 nM
O=c1c(NC2CCN(Cc3ccc4ccccc4c3)CC2)nccn1-c1ccc(CN2CCC(O)CC2)cc1 [2-14] | 158 nM
O=c1c(NC2CCN(Cc3ccc4ccccc4c3)CC2)nccn1-c1ccccn1 [6-16] | 63.1 nM
O=C(Cn1ccnc(NC2CCN(Cc3ccc4ccccc4c3)CC2)c1=O)N(Cc1ccccc1)c1ccccc1 [1-104] | 200 nM
O=c1c(NC2CCN(Cc3ccc4ccccc4c3)CC2)nccn1-c1ccc2c(c1)OCCO2 [4-05] | 20 nM
O=c1c(NC2CCN(Cc3ccc4ccccc4c3)CC2)nccn1-c1ccc(CNCc2ccccn2)cc1 [1-90] | 251 nM
O=c1c(NC2CCN(Cc3ccc4ccccc4c3)CC2)nccn1-c1ccc(CNCCF)c(F)c1 [1-08] | 126 nM
O=c1c(NC2CCN(Cc3ccc4ccccc4c3)CC2)nccn1-c1ccc(CNCCF)cc1 [1-07] | 126 nM
O=c1[nH]c(-c2cccc(CN3CCCCC3)c2)c(Cl)nc1NC1CCN(Cc2ccc3ccccc3c2)CC1 [7-05] | 794 nM

Target: T2, human adrenergic-α2C receptor (Homo sapiens, UniProt P18825)
T2 construct: expressed in transfected cells; host or cells: CHO cells, stably transfected; membrane preparation
T2 sequence (P18825 1-462): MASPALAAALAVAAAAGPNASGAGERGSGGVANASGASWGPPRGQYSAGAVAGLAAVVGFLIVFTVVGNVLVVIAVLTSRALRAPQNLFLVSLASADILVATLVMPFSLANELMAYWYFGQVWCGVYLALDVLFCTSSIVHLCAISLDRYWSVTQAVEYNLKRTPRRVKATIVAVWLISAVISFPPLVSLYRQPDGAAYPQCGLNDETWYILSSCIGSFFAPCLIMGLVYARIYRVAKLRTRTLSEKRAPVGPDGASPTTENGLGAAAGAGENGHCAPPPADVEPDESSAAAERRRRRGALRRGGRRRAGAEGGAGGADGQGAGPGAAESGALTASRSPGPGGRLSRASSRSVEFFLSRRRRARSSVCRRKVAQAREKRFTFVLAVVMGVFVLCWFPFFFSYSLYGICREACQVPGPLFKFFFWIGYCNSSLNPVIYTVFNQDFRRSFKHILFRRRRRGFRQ
Test: Radioligand binding experiment for hα2C-adrenoceptor ([3H]raulwolscine)
Details: [3H]raulwolscine 1 nM, 60 minutes at 25° C.; read-out: h-α2C pIC50 (converted)
How it was run: as §1

Compound | IC50
O=c1[nH]ccnc1NC1CCN(Cc2ccc3ncccc3c2)CC1 [9-13] | 398 nM
CN(Cc1ccccc1)C(=O)Cn1ccnc(NC2CCN(Cc3ccc4ccccc4c3)CC2)c1=O [1-69] | 20 nM
CCOC(=O)N1CCC(NC(=O)NCc2ccc(-n3ccnc(NC4CCN(Cc5ccc6ccccc6c5)CC4)c3=O)cc2)CC1 [1-55] | 100 nM
O=c1c(NC2CCN(Cc3ccc4ccccc4c3)CC2)nccn1-c1cnc2ccccc2c1 [6-09] | 126 nM
O=c1c(NC2CCN(Cc3ccc4ccccc4c3)CC2)nccn1CCCC(c1ccc(F)cc1)c1ccc(F)cc1 [5-07] | 158 nM
Cc1ccc(CN(Cc2ccc(-n3ccnc(NC4CCN(Cc5ccc6ccccc6c5)CC4)c3=O)cc2)Cc2ccc(C)o2)o1 [1-85] | 79.4 nM
O=c1c(N2CCN(Cc3ccc4ccccc4n3)CC2)nccn1Cc1ccccc1 [9-29] | 501 nM
O=c1c(NC2CCN(Cc3ccc4ncccc4c3)CC2)nccn1CCCOCc1ccccc1 [9-06] | 316 nM
O=c1c(NC2CCN(Cc3ccc4ccccc4c3)CC2)nccn1CCCO [3-02] | 100 nM
CN(C(=O)Cn1ccnc(NC2CCN(Cc3ccc4ccccc4c3)CC2)c1=O)c1ccccc1 [1-63] | 25.1 nM
CN(C(=O)Cn1ccnc(NC2CCN(Cc3ccc4ccccc4c3)CC2)c1=O)C1CCCCC1 [1-16] | 25.1 nM
Cc1ccc(CNC(=O)NCc2ccc(-n3ccnc(NC4CCN(Cc5ccc6ccccc6c5)CC4)c3=O)cc2)cc1F [1-49] | 39.8 nM
N#CCCn1ccnc(NC2CCN(Cc3ccc4ccccc4c3)CC2)c1=O [5-05] | 200 nM
NCc1ccc(-n2ccnc(NC3CCN(Cc4ccc5ccccc5c4)CC3)c2=O)cc1 [1-01] | 20 nM
O=c1c(NC2CCN(Cc3ccc4ccccc4c3)CC2)nccn1-c1ccc(CN2CCC(O)CC2)cc1 [2-14] | 10 nM
O=c1c(NC2CCN(Cc3ccc4ccccc4c3)CC2)nccn1-c1ccccn1 [6-16] | 25.1 nM
O=C(Cn1ccnc(NC2CCN(Cc3ccc4ccccc4c3)CC2)c1=O)N(Cc1ccccc1)c1ccccc1 [1-104] | 20 nM
O=c1c(NC2CCN(Cc3ccc4ccccc4c3)CC2)nccn1-c1ccc2c(c1)OCCO2 [4-05] | 31.6 nM
O=c1c(NC2CCN(Cc3ccc4ccccc4c3)CC2)nccn1-c1ccc(CNCc2ccccn2)cc1 [1-90] | 12.6 nM
O=c1c(NC2CCN(Cc3ccc4ccccc4c3)CC2)nccn1-c1ccc(CNCCF)c(F)c1 [1-08] | 7.94 nM
O=c1c(NC2CCN(Cc3ccc4ccccc4c3)CC2)nccn1-c1ccc(CNCCF)cc1 [1-07] | 6.31 nM
O=c1[nH]c(-c2cccc(CN3CCCCC3)c2)c(Cl)nc1NC1CCN(Cc2ccc3ccccc3c2)CC1 [7-05] | 126 nM

Target: T3, 5HT-transporter (Homo sapiens, UniProt P31645)
T3 construct: Human platelet membranes (Oceanix Biosciences Corporation, Hanover, Md., USA) were thawed; tissue Oceanix Biosciences Corporation, Hanover, Md., USA; host or cells: human platelet membranes
T3 sequence (P31645 whole entry): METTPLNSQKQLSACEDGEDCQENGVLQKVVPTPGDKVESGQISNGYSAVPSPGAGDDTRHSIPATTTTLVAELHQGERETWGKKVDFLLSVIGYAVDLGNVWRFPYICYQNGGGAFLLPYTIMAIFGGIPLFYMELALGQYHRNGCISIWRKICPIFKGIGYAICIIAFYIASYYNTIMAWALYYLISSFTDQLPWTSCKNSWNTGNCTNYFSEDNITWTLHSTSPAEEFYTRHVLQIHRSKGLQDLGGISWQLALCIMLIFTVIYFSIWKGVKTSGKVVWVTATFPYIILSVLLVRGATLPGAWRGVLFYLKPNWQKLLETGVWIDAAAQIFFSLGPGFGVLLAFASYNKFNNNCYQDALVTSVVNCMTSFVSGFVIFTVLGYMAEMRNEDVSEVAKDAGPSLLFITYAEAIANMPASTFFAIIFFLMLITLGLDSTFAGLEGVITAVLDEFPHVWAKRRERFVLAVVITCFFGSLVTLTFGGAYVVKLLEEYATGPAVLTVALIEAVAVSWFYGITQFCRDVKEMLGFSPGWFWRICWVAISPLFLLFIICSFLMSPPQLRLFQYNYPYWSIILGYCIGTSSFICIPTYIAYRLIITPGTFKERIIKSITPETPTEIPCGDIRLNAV
Test: Binding experiment for the 5HT-transporter ([3H]paroxetine, human platelet membranes)
Details: [3H]paroxetine 0.5 nM, 60 min at 25° C., read-out: h-5HTT pIC50 (converted)
How it was run: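 Competition binding of [3H]paroxetine to human platelet membranes in Tris-HCl 50 mM with 120 mM NaCl and 5 mM KCl; bound radioligand separated by GF/B filtration and counted.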

Compound | IC50
O=c1[nH]ccnc1NC1CCN(Cc2ccc3ncccc3c2)CC1 [9-13] | > 10000 nM
CN(Cc1ccccc1)C(=O)Cn1ccnc(NC2CCN(Cc3ccc4ccccc4c3)CC2)c1=O [1-69] | 50.1 nM
CCOC(=O)N1CCC(NC(=O)NCc2ccc(-n3ccnc(NC4CCN(Cc5ccc6ccccc6c5)CC4)c3=O)cc2)CC1 [1-55] | 63.1 nM
O=c1c(NC2CCN(Cc3ccc4ccccc4c3)CC2)nccn1-c1cnc2ccccc2c1 [6-09] | 50.1 nM
O=c1c(NC2CCN(Cc3ccc4ccccc4c3)CC2)nccn1CCCC(c1ccc(F)cc1)c1ccc(F)cc1 [5-07] | 158 nM
Cc1ccc(CN(Cc2ccc(-n3ccnc(NC4CCN(Cc5ccc6ccccc6c5)CC4)c3=O)cc2)Cc2ccc(C)o2)o1 [1-85] | 31.6 nM
O=c1c(N2CCN(Cc3ccc4ccccc4n3)CC2)nccn1Cc1ccccc1 [9-29] | > 10000 nM
O=c1c(NC2CCN(Cc3ccc4ncccc4c3)CC2)nccn1CCCOCc1ccccc1 [9-06] | 39.8 nM
O=c1c(NC2CCN(Cc3ccc4ccccc4c3)CC2)nccn1CCCO [3-02] | 200 nM
CN(C(=O)Cn1ccnc(NC2CCN(Cc3ccc4ccccc4c3)CC2)c1=O)c1ccccc1 [1-63] | 63.1 nM
CN(C(=O)Cn1ccnc(NC2CCN(Cc3ccc4ccccc4c3)CC2)c1=O)C1CCCCC1 [1-16] | 251 nM
Cc1ccc(CNC(=O)NCc2ccc(-n3ccnc(NC4CCN(Cc5ccc6ccccc6c5)CC4)c3=O)cc2)cc1F [1-49] | 39.8 nM
N#CCCn1ccnc(NC2CCN(Cc3ccc4ccccc4c3)CC2)c1=O [5-05] | 316 nM
NCc1ccc(-n2ccnc(NC3CCN(Cc4ccc5ccccc5c4)CC3)c2=O)cc1 [1-01] | 20 nM
O=c1c(NC2CCN(Cc3ccc4ccccc4c3)CC2)nccn1-c1ccc(CN2CCC(O)CC2)cc1 [2-14] | 5.01 nM
O=c1c(NC2CCN(Cc3ccc4ccccc4c3)CC2)nccn1-c1ccccn1 [6-16] | 158 nM
O=C(Cn1ccnc(NC2CCN(Cc3ccc4ccccc4c3)CC2)c1=O)N(Cc1ccccc1)c1ccccc1 [1-104] | 126 nM
O=c1c(NC2CCN(Cc3ccc4ccccc4c3)CC2)nccn1-c1ccc2c(c1)OCCO2 [4-05] | 10 nM
O=c1c(NC2CCN(Cc3ccc4ccccc4c3)CC2)nccn1-c1ccc(CNCc2ccccn2)cc1 [1-90] | 7.94 nM
O=c1c(NC2CCN(Cc3ccc4ccccc4c3)CC2)nccn1-c1ccc(CNCCF)c(F)c1 [1-08] | 10 nM
O=c1c(NC2CCN(Cc3ccc4ccccc4c3)CC2)nccn1-c1ccc(CNCCF)cc1 [1-07] | 7.94 nM
O=c1[nH]c(-c2cccc(CN3CCCCC3)c2)c(Cl)nc1NC1CCN(Cc2ccc3ccccc3c2)CC1 [7-05] | 631 nM
